Results: patent US8791132B2, “Compounds and methods for treatment of hypertension” (Medivation Technologies, Inc., priority 2011, dated 2014)
Like-named read-outs stand apart in the source and are kept apart here.

Key:
[1] = target: T1, rat adrenergic α1B receptor (Rattus norvegicus, UniProt P15823); assay: Radioligand binding, adrenergic α1B ([3H]Prazosin)
T1 construct: rat adrenergic α1B receptor obtained from Wistar Rat liver; from tissue; host or cells: Wistar rat liver
T1 sequence (P15823 1-515): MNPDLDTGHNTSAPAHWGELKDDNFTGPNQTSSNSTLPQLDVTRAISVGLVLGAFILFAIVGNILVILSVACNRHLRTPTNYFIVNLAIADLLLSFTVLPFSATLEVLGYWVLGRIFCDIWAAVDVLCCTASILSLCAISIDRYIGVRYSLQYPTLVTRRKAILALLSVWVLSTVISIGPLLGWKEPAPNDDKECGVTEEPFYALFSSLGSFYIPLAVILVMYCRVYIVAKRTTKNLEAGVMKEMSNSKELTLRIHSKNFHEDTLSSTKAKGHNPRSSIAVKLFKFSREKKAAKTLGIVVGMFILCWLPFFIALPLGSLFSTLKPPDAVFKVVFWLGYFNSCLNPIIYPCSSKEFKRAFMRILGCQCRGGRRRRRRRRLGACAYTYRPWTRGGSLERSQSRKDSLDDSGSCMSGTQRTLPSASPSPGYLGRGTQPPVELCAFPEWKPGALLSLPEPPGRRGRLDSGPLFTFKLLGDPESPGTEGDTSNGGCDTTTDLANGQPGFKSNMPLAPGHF
Procedure, shortened: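 Rat α1B receptor from Wistar rat liver was incubated with 0.25 nM [3H]prazosin for 60 min at 25 °C in 50 mM Tris-HCl, pH 7.4, 0.5 mM EDTA. Non-specific binding was defined with 10 μM phentolamine. Bound radioligand was measured by filtration and counting, reported as percent inhibition of specific binding.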

[2] = target: T2, human recombinant adrenergic α1D receptor (Homo sapiens, UniProt P25100); assay: Radioligand binding, adrenergic α1D ([3H]Prazosin)
T2 construct: expressed in transfected cells; host or cells: HEK-293
T2 sequence (P25100 1-572): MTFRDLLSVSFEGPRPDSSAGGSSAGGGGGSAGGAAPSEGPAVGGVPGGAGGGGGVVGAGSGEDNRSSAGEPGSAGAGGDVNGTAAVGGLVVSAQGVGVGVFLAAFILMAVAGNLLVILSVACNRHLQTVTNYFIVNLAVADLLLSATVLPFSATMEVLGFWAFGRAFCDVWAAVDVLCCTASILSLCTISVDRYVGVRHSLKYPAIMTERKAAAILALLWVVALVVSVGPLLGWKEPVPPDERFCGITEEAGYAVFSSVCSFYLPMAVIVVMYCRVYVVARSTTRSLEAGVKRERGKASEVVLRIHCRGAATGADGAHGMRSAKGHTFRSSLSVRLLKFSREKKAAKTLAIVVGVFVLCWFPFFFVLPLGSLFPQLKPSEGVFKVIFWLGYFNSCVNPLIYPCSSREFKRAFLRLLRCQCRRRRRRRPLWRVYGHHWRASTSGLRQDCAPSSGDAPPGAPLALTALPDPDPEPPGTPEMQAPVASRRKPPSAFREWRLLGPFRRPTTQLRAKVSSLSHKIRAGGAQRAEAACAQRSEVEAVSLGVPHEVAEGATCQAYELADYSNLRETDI
Procedure: Compounds were incubated with 0.6 nM [3H]Prazosin for 60 min at 25° C. Non-specific binding was estimated in the presence of 10 μM phentolamine. Receptor proteins were filtered and washed, the filters were then counted to determine [3H]Prazosin specifically bound. […] Biochemical assay results are presented as the percent inhibition of specific binding in Table B1.

[3] = target: T3, human recombinant adrenergic α2A receptor (Homo sapiens, UniProt P08913); assay: Radioligand binding, adrenergic α2A ([3H]MK-912)
T3 construct: expressed in transfected cells; host or cells: insect Sf9 cells
T3 sequence (P08913 1-465): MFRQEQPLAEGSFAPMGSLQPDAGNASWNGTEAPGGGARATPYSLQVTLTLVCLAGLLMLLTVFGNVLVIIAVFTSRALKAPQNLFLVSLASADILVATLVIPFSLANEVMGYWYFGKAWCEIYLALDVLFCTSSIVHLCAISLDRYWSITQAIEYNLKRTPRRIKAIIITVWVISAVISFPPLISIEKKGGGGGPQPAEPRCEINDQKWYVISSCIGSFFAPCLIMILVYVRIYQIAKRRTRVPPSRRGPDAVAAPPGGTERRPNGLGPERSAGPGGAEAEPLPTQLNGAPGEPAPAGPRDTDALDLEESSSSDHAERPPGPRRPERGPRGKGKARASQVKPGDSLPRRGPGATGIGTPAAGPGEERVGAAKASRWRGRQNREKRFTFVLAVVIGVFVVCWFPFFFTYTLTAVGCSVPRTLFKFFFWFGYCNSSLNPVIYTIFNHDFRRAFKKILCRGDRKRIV
Procedure, shortened: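 Receptor expressed in Sf9 cells, in 50 mM Tris-HCl pH 7.4, 12.5 mM MgCl2, 2 mM EDTA; compounds incubated with 1 nM [3H]MK-912 for 60 min at 25 °C.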

[4] = target: T4, human recombinant adrenergic α2B receptor (Homo sapiens, UniProt P18089); assay: Radioligand binding, adrenergic α2B ([3H]Rauwolscine)
T4 construct: expressed in transfected cells; host or cells: CHO-K1
T4 sequence (P18089 1-450): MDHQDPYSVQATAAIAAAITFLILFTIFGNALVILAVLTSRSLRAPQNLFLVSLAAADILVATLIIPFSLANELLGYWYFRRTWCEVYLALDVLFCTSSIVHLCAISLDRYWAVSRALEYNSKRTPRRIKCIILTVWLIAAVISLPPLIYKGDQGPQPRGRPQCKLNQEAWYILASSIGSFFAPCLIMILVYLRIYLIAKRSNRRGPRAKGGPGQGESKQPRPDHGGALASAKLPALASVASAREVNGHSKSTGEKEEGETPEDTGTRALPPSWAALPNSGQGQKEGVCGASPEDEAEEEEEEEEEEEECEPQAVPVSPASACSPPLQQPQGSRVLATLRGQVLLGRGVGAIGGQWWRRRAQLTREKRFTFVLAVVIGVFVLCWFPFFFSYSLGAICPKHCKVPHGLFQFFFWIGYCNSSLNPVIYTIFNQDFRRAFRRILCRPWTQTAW
Procedure, shortened: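 Membranes from CHO-K1 cells expressing human recombinant α2B, in 50 mM Tris-HCl pH 7.4, 12.5 mM MgCl2, 1 mM EDTA, 0.2% BSA, incubated with compound and 2.5 nM [3H]Rauwolscine, 60 min, 25 °C.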

[5] = 0.1 μM compound, read-out: Percentage inhibition of ligand binding, Adrenergic α1B
[6] = 0.1 μM compound, read-out: Percentage inhibition of ligand binding, Adrenergic α1D
[7] = 0.1 μM compound, read-out: Percentage inhibition of ligand binding, Adrenergic α2A
[8] = 0.1 μM compound, read-out: Percentage inhibition of ligand binding, Adrenergic α2B
[9] = read-out: Percentage inhibition of ligand binding, Adrenergic α1B (0.1 μM), compound at 0.1 μM, [3H]Prazosin, repeat datapoints each shown
[10] = read-out: Percentage inhibition of ligand binding, Adrenergic α1D (0.1 μM), compound at 0.1 μM, [3H]Prazosin, repeat datapoints each shown
[11] = read-out: Percentage inhibition of ligand binding, Adrenergic α2A (0.1 μM), compound at 0.1 μM, [3H]MK-912, repeat datapoints each shown
[12] = read-out: Percentage inhibition of ligand binding, Adrenergic α2B (0.1 μM), compound at 0.1 μM, [3H]Rauwolscine, repeat datapoints each shown

inhibition at 0.1 µM [1, 5]	inhibition at 0.1 µM [2, 6]	inhibition at 0.1 µM [3, 7]	inhibition at 0.1 µM [4, 8]	inhibition at 0.1 µM [1, 9]	inhibition at 0.1 µM [2, 10]	inhibition at 0.1 µM [3, 11]	inhibition at 0.1 µM [4, 12]	Compound	also measured
91%	72%	55%	82%	–	–	–	–	Cc1ccc2c(c1)c1c(n2C#Cc2ccc(S(N)(=O)=O)s2)CCN(C)C1 [compound 334, 5-(2,8-dimethyl-1,2,3,4-tetrahydro-pyrido[4,3-b]indol-5-ylethynyl)-thiophene-2-sulfonic acid amide]	–
63%	71%	98%	97%	–	–	–	–	C/C(=C\n1c2c(c3cc(C)ccc31)CN(C)CC2)c1cc(C)cs1 [compound 285]	–
–	–	–	–	49%	20%	19%	80%	C/C(=C\n1c2c(c3cc(C)ccc31)CNCC2)c1ccncc1 [compound 103]	–
–	–	–	–	48%	11%	80%	96%	C/C(=C\n1c2c(c3cc(Cl)ccc31)CCN(C)CC2)c1ccccc1Cl [compound 235]	–
–	–	–	–	2%	15%	-3%	56%	Cc1ccc(CCn2c3c(c4cccnc42)C2CCCN2CC3)cn1 (centres unmarked) [IV-4]	–
–	–	–	–	12%	3%	29%	87%	C/C(=C\n1c2c(c3cc(C)ccc31)CN(C)CC2)c1cccc2ccccc12 [compound 113]	–
50%	66%	96%	76%	–	–	–	–	C/C(=C\n1c2c(c3cc(C)ccc31)CN(C)CC2)c1ccc2ccccc2c1 [compound 270]	–
53%	37%	50%	98%	–	–	–	–	COc1ccc(C#Cn2c3c(c4cc(Cl)ccc42)CCN(C)CC3)cc1F [compound 242]	–
–	–	–	–	58%	28%	3%	45%	Cc1cnc2c(c1)c1c(n2CCc2ccc(C)nc2)CC2CCCN2C1 (centres unmarked) [II-235]	–
–	–	–	–	70%	26%	52%	69%	C/C(=C\n1c2c(c3cc(C)ccc31)CCN(C)C2)c1ccc(Cl)cc1 [compound 224]	–
86%	81%	71%	101%	–	–	–	–	C/C(=C/n1c2c(c3cc(C)ccc31)CN(C)CC2)c1ccc(F)nc1 [compound 276]	–
-7%	-9%	14%	-15%	–	–	–	–	Cc1ccc(CCn2c3c(c4c(C)ccc(C)c42)CN(C)CC3)cn1 [II-18]	–
–	–	–	–	–	6%	–	87%	Cc1ccc(C(C)(O)Cn2c3c(c4cc(Cl)ccc42)CN(C)CC3)cn1 (centres unmarked) [compound 93]	Percentage inhibition of ligand binding, Adrenergic α1B (0.1 μM) ([1]; compound at 0.1 μM, [3H]Prazosin, repeat datapoints each shown, 0.1 µM): 25%; Percentage inhibition of ligand binding, Adrenergic α2A (0.1 μM) ([3]; compound at 0.1 μM, [3H]MK-912, repeat datapoints each shown, 0.1 µM): 21%
76%	39%	94%	41%	–	–	–	–	Cc1ccc2c(c1)c1c(n2CCc2csc3ccccc23)CCN(C)C1 [compound 294, 5-(2-benzo[b]thiophen-3-yl-ethyl)-2,8-dimethyl-2,3,4,5-tetrahydro-1H-pyrido[4,3-b]indole]	–
–	–	–	–	56%	77%	0%	65%	CC(=O)Nc1ccc(/C(C)=C\n2c3c(c4cc(C)ccc42)CN(C)CC3)cn1 [compound 111]	–
–	–	–	–	–	–	–	–	COc1ccc(C(C)(O)Cn2c3c(c4cc(C)ccc42)CN(C)CC3)cc1 (centres unmarked) [254b]	Percentage inhibition of ligand binding, Adrenergic α1B ([1]; 0.1 μM compound, 0.1 µM): 63%; Percentage inhibition of ligand binding, Adrenergic α1D ([2]; 0.1 μM compound, 0.1 µM): 22%; Percentage inhibition of ligand binding, Adrenergic α2A ([3]; 0.1 μM compound, 0.1 µM): 57%; Percentage inhibition of ligand binding, Adrenergic α2B ([4]; 0.1 μM compound, 0.1 µM): 79%
75%	36%	58%	85%	–	–	–	–	COc1ccc(C(C)(O)Cn2c3c(c4cc(C)ccc42)CN(C)CC3)cc1 (centres unmarked) [254a]	–
–	–	–	–	–	–	90%	106%	CN1CCc2c(c3cc(Cl)ccc3n2CCc2ccccc2)C1 [compound 207]	inhibition at 0.03 µM ([1]; read-out: Percentage inhibition of ligand binding, Adrenergic α1B (0.03 μM), compound at 0.03 μM, [3H]Prazosin, repeat datapoints each shown): 49%; inhibition at 0.03 µM ([2]; read-out: Percentage inhibition of ligand binding, Adrenergic α1D (0.03 μM), compound at 0.03 μM, [3H]Prazosin, repeat datapoints each shown): 39%; Ki [3]: 1.16 nM
–	–	–	–	69%	34%	29%	85%	C/C(=C\n1c2c(c3cc(C)ccc31)CCN(C)CC2)c1ccncc1 [compound 99]	–
71%	50%	56%	93%	–	–	–	–	C/C(=C\n1c2c(c3cc(C)cc(C)c31)CN(C)CC2)c1ccncc1 [compound 312]	–
16%	13%	27%	-14%	–	–	–	–	Cc1cc(Br)c2c(c1)c1c(n2CCc2ccc(C)nc2)CCN(C)C1 [II-39]	–
87%	79%	91%	97%	–	–	–	–	C/C(=C\n1c2c(c3cc(C)ccc31)CN(C)CC2)c1ccc2cnccc2c1 [compound 311]	–
